For 16 molecules, inhibition results are on record in patent EP3212201B1, “NUCLEOSIDE KINASE INHIBITORS” (BCI Pharma, priority 2014, dated 2016).

For orientation: inhibition means the change of the read-out against control, counted positive when it falls.

This assay deals with PRKCB1 (PKC beta I) (Homo sapiens, UniProt P05771). The assay is described as follows: FRET-based coupled-enzyme protein kinase inhibition assay. The class given is biochemical. As to conditions: compound at 10 µM, 1% DMSO. The protocol: A biochemical assay was then performed in order to measure the protein kinase inhibition. It employed a fluorescence-based coupled-enzyme format and was based on the differential sensitivity of phosphorylated and non-phosphorylated peptides to proteolytic cleavage.
Sequence of PRKCB1 (PKC beta I) (P05771 whole entry, species assumed): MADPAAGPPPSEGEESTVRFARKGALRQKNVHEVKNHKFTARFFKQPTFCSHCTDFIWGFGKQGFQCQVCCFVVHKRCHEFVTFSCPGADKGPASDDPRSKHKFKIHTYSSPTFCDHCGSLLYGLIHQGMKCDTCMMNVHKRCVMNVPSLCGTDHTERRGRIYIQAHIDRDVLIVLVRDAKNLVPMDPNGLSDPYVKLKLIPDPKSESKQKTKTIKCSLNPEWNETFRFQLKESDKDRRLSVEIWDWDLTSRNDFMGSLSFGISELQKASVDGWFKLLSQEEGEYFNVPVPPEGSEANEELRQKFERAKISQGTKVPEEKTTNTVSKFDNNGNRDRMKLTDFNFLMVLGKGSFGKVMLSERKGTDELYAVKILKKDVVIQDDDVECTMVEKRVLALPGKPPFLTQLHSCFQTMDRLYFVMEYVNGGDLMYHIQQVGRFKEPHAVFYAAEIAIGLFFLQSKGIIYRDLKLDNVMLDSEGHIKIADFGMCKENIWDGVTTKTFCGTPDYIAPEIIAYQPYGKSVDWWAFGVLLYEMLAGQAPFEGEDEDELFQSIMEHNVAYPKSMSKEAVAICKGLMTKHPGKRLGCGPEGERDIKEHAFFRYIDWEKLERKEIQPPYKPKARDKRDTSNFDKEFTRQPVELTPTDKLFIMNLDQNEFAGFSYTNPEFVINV
Peptide substrates were labeled with two fluorophores. The two fluorohores used were coumarin (donor) and fluorecein (acceptor), and each of the peptides was bearing one at one end, and one at the other end, which made up fluorescence resonance energy transfer (FRET) pair peptides.
In a primary reaction, the FRET-peptides were submitted to a phosphorylation reaction, in which one of adenosine triphosphate (ATP)'s phosphate groups was transferred to the peptide in the presence of kinase. When kinase inhibition takes place, the peptide will not be phosphorylated. In a secondary reaction, both the phosphorylated FRET-peptides and the non-phosphorylated FRET-peptides were reacted with a development reagent. It has been observed that non-phosphorylated FRET-peptides were cleaved, whereas the phosphorylted FRET-peptide remained intact.
Cleavage disrupts FRET between the donor (i.e., coumarin) and acceptor (i.e., fluorescein) fluorophores on the FRET-peptide, whereas uncleaved, phosphorylated FRET-peptides maintain FRET. A ratiometric method, which calculates the Emission Ratio of donor emission to acceptor emission after excitation of the donor fluorophore at 400 nm, is used to quantitate reaction progress, as shown in the equation below. [formula]
A significant benefit of this ratiometric method for quantitating reaction progress is the elimination of well-to-well variations in FRET-peptide concentration and signal intensities. As a result, the assay yields very high Z'factor values (>0.7) at a low percent phosphorylation. Both cleaved and uncleaved FRET-peptides contribute to the fluorescence signals and therefore to the Emission Ratio. The extent of phosphorylation of the FRET-peptide can be calculated from the Emission Ratio. The Emission Ratio will remain low if the FRET-peptide is phosphorylated (i.e., no kinase inhibition) and will be high if the FRET-peptide is non-phosphorylated (i.e., kinase inhibition).
The Test Compounds were screened in 1% DMSO. For 10 point titrations, 3-fold serial dilutions were prepared from the starting concentration.
All Peptide/Kinase Mixtures were diluted to a 2X working concentration in the appropriate Kinase Buffer (50 mM HEPES pH 7.5, 0.01% BRIJ-35, 10 mM MgCl2, 1 mM […]).
All ATP Solutions were diluted to a 4X working concentration in Kinase Buffer. ATP Km apparent was previously determined using another assay.
The Development Reagent was diluted in Development Buffer. For 5 mL 10X Novel PKC Lipid Mix, 10X Novel PKC Lipid Mix being composed of 2 mg/ml Phosphatidyl Serine, 0.2 mg/ml DAG in 20 mM HEPES, pH 7.4, 0.3% CHAPS, 10 mg of Phosphatidyl Serine (Avanti Polar Lipids Part# 8400032C or 840039C) and 1 mg DAG (Avanti Polar Lipids Part# 800811C) were added to a glass tube.
The chloroform was removed from the lipid mixture by evaporating to a clear, thin film under a stream of nitrogen. Continuous rotation of the tube, at an angle to ensure maximum surface area of the lipid solution, has promoted the thinnest film. 5mL resuspension buffer, 20 mM HEPES, 0.3% CHAPS, pH 7.4, were added to the dried lipid mix, which was then gently heated to 50-60°C for 1-2 minutes and vortexed in short intervals until the lipids are dissolved to a clear or slightly hazy solution. The lipids were typically in solution after 2-3 heat-vortex cycles. The solution was cooled to room temperature, aliquoted into single use volumes and stored at -20 °C.
2.5 µL - 4X Test Compound or 100 nL 100X plus 2.4 µL kinase buffer were mixed together with 2. 5 µL - 2X Peptide/Kinase Mixture and 3. 2.5 µL - 4X ATP Solution.
The solution was plate-shaked for 30 seconds, then incubated 60 minutes at room temperature for kinase reaction. […]
On to `Nc1ncnc2c1ncn2[C@@H]1O[C@H](COC(=O)NCCCc2nc3ccccc3[nH]2)[C@@H](O)[C@H]1O` [Compound C1], for which the inhibition at 10 µM came to 6%.

As to `C[C@@H](NC(=O)OC[C@H]1O[C@@H](n2cnc3c(N)ncnc32)[C@H](O)[C@@H]1O)c1ccc(Cl)cc1` [Compound C4], the inhibition at 10 µM was -1%.

In the case of `Nc1ncnc2c1ncn2[C@@H]1O[C@H](COC(=O)NC[C@H](O)CO)[C@@H](O)[C@H]1O` [Compound C8], the inhibition at 10 µM was -11%.

For the molecule `Nc1ncnc2c1ncn2[C@@H]1O[C@H](COC(=O)N2CCC[C@H]2CO)[C@@H](O)[C@H]1O` [Compound C9], the inhibition at 10 µM was -6%.

As to `Nc1ncnc2c1ncn2[C@@H]1O[C@H](COC(=O)N[C@@H]2CCN(Cc3ccccc3)C2)[C@@H](O)[C@H]1O` [Compound C10], the inhibition at 10 µM turned out to be 5%.

Regarding `Nc1ncnc2c1ncn2[C@@H]1O[C@H](COC(=O)N2CCN(Cc3ccccc3)CC2CO)[C@@H](O)[C@H]1O` (stereo partly shown) [Compound C13], the inhibition at 10 µM worked out at 7%.

Regarding `CC(C)N1CCC(NC(=O)OC[C@H]2O[C@@H](n3cnc4c(N)ncnc43)[C@H](O)[C@@H]2O)CC1` [Compound C19], the inhibition at 10 µM was determined as 4%.

For `Nc1ncnc2c1ncn2[C@@H]1O[C@H](COC(=O)NCCN2CCCC2=O)[C@@H](O)[C@H]1O` [Compound C22], the inhibition at 10 µM was -8%.

On to `Nc1ncnc2c1ncn2[C@@H]1O[C@H](COC(=O)N2CCN(CCc3ccccc3)CC2)[C@@H](O)[C@H]1O` [Compound C26], for which the inhibition at 10 µM was found to be 0%.

Consider `CN1CCN(CCNC(=O)OC[C@H]2O[C@@H](n3cnc4c(N)ncnc43)[C@H](O)[C@@H]2O)CC1` [Compound C46], for which the inhibition at 10 µM was 0%.

As to `Nc1ncnc2c1ncn2[C@@H]1O[C@H](COC(=O)N2CCC(Cc3ccc(F)cc3)C2)[C@@H](O)[C@H]1O` (stereo partly shown) [Compound C66], the inhibition at 10 µM amounted to 1%.

On to `N#CCCN1CCN(C(=O)OC[C@H]2O[C@@H](n3cnc4c(N)ncnc43)[C@H](O)[C@@H]2O)CC1` [Compound C70], for which the inhibition at 10 µM was -5%.

Regarding `CN(C)CCNC(=O)OC[C@H]1O[C@@H](n2cnc3c(N)ncnc32)[C@H](O)[C@@H]1O` [Compound C85], the inhibition at 10 µM was -1%.

Turning to `Nc1ncnc2c1ncn2[C@@H]1O[C@H](COC(=O)N2CCN(C(=O)N3CCOCC3)CC2)[C@@H](O)[C@H]1O` [Compound C89], the inhibition at 10 µM was -6%.

`CS(=O)(=O)N1CC2(CCN(C(=O)OC[C@H]3O[C@@H](n4cnc5c(N)ncnc54)[C@H](O)[C@@H]3O)CC2)c2ccccc21` [Compound C98]: the inhibition at 10 µM is -1%.

Regarding `Nc1ncnc2c1ncn2[C@@H]1O[C@H](COC(=O)N2CCS(=O)(=O)CC2)[C@@H](O)[C@H]1O` [Compound C100], the inhibition at 10 µM was determined as 1%.
